Measurements taken from patent US20160220569A1, “CDK4/6 Inhibitor Dosage Formulations For The Protection Of Hematopoietic Stem And Progenitor Cells During Chemotherapy” (G1 Therapeutics, Inc., priority 2015, published 2016).

Assays:
[1] = 14-day toxicokinetic study in dogs; format: in vivo, dogs (Beagle); settings: male and female dogs
Description: Dogs in the control group were not exposed to Compound 1 and so were a true control group.
The required weight of Compound 1 di-HCl was added to an appropriate size vessel. […] The vessel was placed on a stirring hotplate and the formulation heated to a temperature of 30-35° C. The contents of the vessel were allowed to stir at 30-35° C. or a stir plate until all test article appeared to be dissolved, and for a period of at least 1 hour. The pH of the formulation was verified and adjusted to 4.0-4.5 using 1N HCl or 1N NaOH as required. The formulation was transferred into an appropriate size graduated cylinder. Sufficient vehicle control will be added to the cylinder to obtain the final desired concentration of formulated test article. The completed stock formulation was dispensed into several amber glass bottles as aliquots for each day of dosing. These formulations were stored at controlled room temperature (15-30° C.) until used for dose administration.
The beagle dog was chosen for this study as it is a species that is used for non-clinical toxicity and pharmacokinetic evaluations and satisfies the regulatory requirement for non-clinical safety studies in a non-rodent species. […]

[2] = PK comparison of Compound 1 clinical data with literature PK of palbociclib; format: in vivo, human
[3] = Red blood cell and neutrophil counts after single dose in dogs; format: in vivo; settings: out to 15 days
[4] = Blood cell counts in mice after 5-Fluorouracil with or without Compound 1; format: in vivo; settings: Compound 1 100 mg/kg before 5FU
Description: Blood cell counts for neutrophils, lymphocytes, red blood cells (RBCs), and platelets were conducted.

[5] = tested on: NCI-H69 mice small cell lung cancer (SCLC) xenograft; assay: NCI-H69 small cell lung cancer xenograft study; format: in vivo
Description: FIG. 61 is a graph of tumor size (cubic millimeters) vs time (days) for a small cell lung cancer xenograft model with various dosing regimens.

[6] = Hematology (ANC, lymphocytes, hemoglobin, platelets) during etoposide and carboplatin chemotherapy; format: in vivo, human; settings: 200 mg/m^2 with etoposide and carboplatin
Description: As shown in FIG. 63A the absolute neutrophil count though affected by chemotherapy rarely dipped below the G1 phase. As shown in FIG. 63B the lymphocyte count though affected by chemotherapy rarely dipped below the G1 phase. As shown in FIG. 63C the hemoglobin concentration though affected by chemotherapy rarely dipped below the G1 phase. As shown in FIG. 63D the platelet count though affected by chemotherapy rarely dipped below the G1 phase.

[7] = Nonclinical IV and oral pharmacokinetics in dogs; format: in vivo; settings: dog, plasma
[8] = human, plasma, 96 mg/m2, 96 mg/m^2 IV

For `CN1CCN(c2ccc(Nc3ncc4cc5n(c4n3)C3(CCCCC3)CNC5=O)nc2)CC1` [Compound 1, 2′-((5-(4-methylpiperazin-1-yl)pyridin-2-yl)amino)-7′,8′-dihydro-6′H-spiro[cyclohexane-1,9′-pyrazino[1′,2′:1,5]pyrrolo[2,3-d]pyrimidin]-6′-one], which “systemic exposure with increasing dose level” value [1] is on record?
The value was “increased roughly proportionally”.

What about the CL/F ([2]; 96 mg/m^2 IV) of the same molecule?
Its CL/F is 121 L/h.

What about the “accumulation in blood plasma on consecutive days” value ([2]; Compound 1) of the same molecule?
The value was “does not show accumulation”.

What about the CL/F ([2]; […]^2 IV) of the same molecule?
Its CL/F is 126 L/h.

What about the AUC(0-inf) [2, 8] of the same molecule?
Its AUC(0-inf) is 1380 ng·h/mL.

And the Cmax [2, 8]?
The Cmax was 932 ng/mL.

And the half-life [2, 8]?
The half-life was 8.6 h.

And the half-life ([2]; human, plasma, iv, […]2)?
Its half-life is 7.9 h.

And the “effect on red blood cells and neutrophils” value [3]?
Its value is “minimal”.

And the “loss of lymphocytes upon 5FU chemotherapy” value [4]?
Its value is “significantly less loss”.

What about the “loss of neutrophils upon 5FU chemotherapy” value [4] of the same molecule?
Its value is “significantly less loss”.

What about the “loss of platelets upon 5FU chemotherapy” value [4] of the same molecule?
The value was “significantly less loss”.

And the “loss of red blood cells upon 5FU chemotherapy” value [4]?
Its value is “significantly less loss”.

What about the tumor growth suppression ([5]; Compound 1 100 mg/kg qdx5dx4, absence of Topotecan) of the same molecule?
The tumor growth suppression was “did not have tumor grown suppression”.

What about the “tumor suppression vs Topotecan alone” value ([5]; Compound 1 10, 50 or 100 mg/kg with Topotecan 0.6 mg/kg) of the same molecule?
The value was “significantly higher level of tumor suppression”.

And the “myelotoxicity (ANC, lymphocyte count, hemoglobin, platelet count)” value [6]?
The value was “no clinically relevant myelotoxicity”.

And the half-life ([7]; both sexes, after IV administration)?
The half-life was roughly 4 h.

What about the bioavailability ([7]; oral 10 mg/kg) of the same molecule?
The bioavailability was 30.2%.

What about the bioavailability ([7]; oral 90 mg/kg) of the same molecule?
Its bioavailability is 17.1%.
